Reference: paper PMC6393897, “An LC-MS/MS Method for Simultaneous Determination of the Toxic and Active Components of Cortex Periplocae in Rat Plasma and Application to a Pharmacokinetic Study” (International Journal of Analytical Chemistry, 2019)
Like-named read-outs stand apart in the source and are kept apart here.

Columns and labels:
[1] = Stability of stock and working solutions stored 2 weeks at 4°C; format: physicochemical
Method: The QC samples (n = 6) at three concentrations (low, medium, and high) were also used to assess the stabilities of all analytes. […] For the freeze/thaw cycle stability, the QC samples stored at -80°C were subjected to three freeze to thaw (at room temperature) cycles. […] The mixed analytes solution (100 ng/mL), which was obtained by diluting the stock solution stored for two weeks at 4°C, was used to evaluate the stability of stock solution. The stability of analytes working solution was also assessed by storing solutions 2 weeks at 4°C. The stabilities of stock and working solutions of ISs were determined by the same procedure as that for the analytes.

[2] = Stability of analytes in rat plasma QC samples (autosampler, room temperature, freeze/thaw, -80°C); format: in vitro ADME; settings: for Freeze thaw cycles stability, Accuracy: three freeze (-80°C)/thaw cycles
Method: The QC samples (n = 6) at three concentrations (low, medium, and high) were also used to assess the stabilities of all analytes. The QC samples under autosampler condition for 24 h were determined to evaluate the autosampler 24 h stability. For the freeze/thaw cycle stability, the QC samples stored at -80°C were subjected to three freeze to thaw (at room temperature) cycles. QC samples stored at room temperature for 24 h and -80°C for 1 month were used to evaluate the short-term stability and the long-term stability. The mixed analytes solution (100 ng/mL), which was obtained by diluting the stock solution stored for two weeks at 4°C, was used to evaluate the stability of stock solution. The stability of analytes working solution was also assessed by storing solutions 2 weeks at 4°C. The stabilities of stock and working solutions of ISs were determined by the same procedure as that for the analytes.

[3] = Pharmacokinetic study in rats after oral administration of cortex periplocae extract (plasma LC-MS/MS); format: in vivo, rat; settings: oral cortex periplocae extract 18.9 g/kg; for AUC: 0-48 h, read-out: AUC(0-tn); for MRT: read-out: MRT(0-tn)
Method: The pharmacokinetic study was conducted in accordance with the Guidelines for the Care and Use of Laboratory Animals and approved by the Animal Ethics Committee of Tianjin University of Traditional Chinese Medicine. […] Appropriate amount of cortex periplocae extract was suspended in 0.5% carboxymethyl cellulose sodium salt aqueous solution (CMC-Na) and the volume of oral administration was 1 mL/100g. […] The rats were anesthetized with ethyl ether before each withdrawal. […] For this repeat bleeds at short intervals, fluid replacement (appropriate volume of physiological saline) was required. The blood samples were immediately centrifuged 10 min at 7000 rpm. The obtained plasma was transferred into another centrifuge tube and stored at -80°C for analysis.
For the maximum drug concentration in plasma (Cmax) and the time to reach maximum drug concentration (Tmax), the values could be directly obtained. The other key parameters such as the area under the plasma concentration–time curve (AUC), elimination half-life (t1/2), and mean residence time (MRT) were calculated with DAS (Drug and Statistics 1.0, Medical College of Wannan, China) using non-compartmental model.

[4] = n = 6, high level (1200 ng/mL isovanillin, periplocin; 240 ng/mL others)
[5] = n = 6, low level (7.2 ng/mL isovanillin, periplocin; 1.44 ng/mL others)
[6] = n = 6, medium level (120 ng/mL isovanillin, periplocin; 24 ng/mL others)
[7] = 2 weeks at 4°C, high level (1200 ng/mL isovanillin, periplocin; 240 ng/mL scopoletin, periplogenin, periplocymarin)
[8] = 2 weeks at 4°C, low level (7.2 ng/mL isovanillin, periplocin; 1.44 ng/mL scopoletin, periplogenin, periplocymarin)
[9] = 2 weeks at 4°C, medium level (120 ng/mL isovanillin, periplocin; 24 ng/mL scopoletin, periplogenin, periplocymarin)
[10] = male Sprague-Dawley rats, plasma, n = 6, mean ± SD
[11] = male, Sprague-Dawley, rat, in vivo, po, 18.9 g/kg, male Sprague-Dawley rats, plasma, n = 6, mean ± SD
[12] = rat, in vivo, male Sprague-Dawley rats, plasma, n = 6, mean ± SD
[13] = rat, in vivo, male Sprague-Dawley rats, plasma, n = 6, mean ± SD, read-out: Cmax
[14] = rat, male Sprague-Dawley rats, plasma, n = 6, mean ± SD

SMILES | -80°C for 1 month stability, Accuracy [2, 4] [%] | Autosampler for 24 hours stability, Accuracy [2, 4] [%] | Room temperature for 24 h stability, Accuracy [2, 4] [%] | -80°C for 1 month stability, Accuracy [2, 5] [%] | Autosampler for 24 hours stability, Accuracy [2, 5] [%] | Room temperature for 24 h stability, Accuracy [2, 5] [%] | -80°C for 1 month stability, Accuracy [2, 6] [%] | Autosampler for 24 hours stability, Accuracy [2, 6] [%] | Room temperature for 24 h stability, Accuracy [2, 6] [%] | Freeze thaw cycles stability, Accuracy [2, 4] [%] | Freeze thaw cycles stability, Accuracy [2, 5] [%] | Freeze thaw cycles stability, Accuracy [2, 6] [%] | Working solution stability, Accuracy [1, 7] [%] | Working solution stability, Accuracy [1, 8] [%] | Working solution stability, Accuracy [1, 9] [%] | AUC [3, 12] [ng·h/mL] | also measured
O=Cc1ccc(O)c(O)c1 [protocatechuic aldehyde, reference compound] |  |  |  |  |  |  |  |  |  |  |  |  |  |  |  |  | Working solution stability of ISs, accuracy ([1]; IS working solutions, 2 weeks at 4°C): 101%
C[C@]12CC[C@H](O)C[C@@]1(O)CC[C@@H]1[C@@H]2CC[C@]2(C)[C@@H](C3=CC(=O)OC3)CC[C@]12O [periplogenin] | 98.7 | 104 | 101 | 109 | 108 | 92.6 | 108 | 110 | 115 | 92.8 | 116 | 112 | 81.5 | 111 | 99.4 |  | 
COC1CC(OC2CCC3(C)C4CCC5(C)C(C6=CC(=O)OC6)CCC5(O)C4CCC3(O)C2)OC(C)C1OC1OC(CO)C(O)C(O)C1O (stereo not shown) [periplocin] | 92.9 | 113 | 96.4 | 115 | 113 | 111 | 115 | 109 | 116 | 113 | 93.7 | 114 | 94.4 | 103 | 98.9 | 83 ± 58.6 | t1/2 [3, 10]: 1.08 ± 0.98 h; half-life [3, 11]: 1.21 ± 1.11 h; AUC(0-inf) [3, 12]: 105 ± 70.9 ng·h/mL; Tmax [3, 12]: 0.31 ± 0.16 h; Cmax [3, 13]: 91.4 ± 53 ng/mL; MRT [3, 12]: 1.21 ± 1.11 h
CO[C@H]1C[C@H](O[C@H]2CC[C@]3(C)[C@H]4CC[C@]5(C)[C@@H](C6=CC(=O)OC6)CC[C@]5(O)[C@@H]4CC[C@]3(O)C2)O[C@H](C)[C@H]1O [periplocymarin] | 102 | 102 | 98.5 | 106 | 101 | 107 | 102 | 108 | 102 | 103 | 113 | 113 | 84.2 | 110 | 95.1 | 1690 ± 1170 | half-life [3, 11]: 30.2 ± 11.8 h; Cmax ratio periplocymarin versus periplogenin ([3]; rat plasma): 9 times; AUC(0-inf) [3, 12]: 2260 ± 1280 ng·h/mL; Tmax [3, 12]: 5.49 ± 4.34 h; Cmax [3, 13]: 126 ± 96.4 ng/mL; MRT [3, 12]: 17.1 ± 2.48 h
COc1ccc(C=O)cc1O [isovanillin] | 99.4 | 114 | 103 | 109 | 100 | 107 | 100 | 112 | 106 | 107 | 101 | 98.6 | 85.0 | 104 | 96.1 |  | Detection in rat plasma after oral administration ([3]; LLOQ 2.4 ng/mL): not detected
CC(=O)CC(c1ccccc1)c1c(O)c2ccccc2oc1=O (stereo not shown) [warfarin, reference compound] |  |  |  |  |  |  |  |  |  |  |  |  |  |  |  |  | Working solution stability of ISs, accuracy ([1]; 2 weeks): 109%
COc1cc2ccc(=O)oc2cc1O [scopoletin] |  |  | 103 |  |  |  |  |  |  |  |  |  |  |  |  | 103 ± 76.4 | Cmax [3, 10]: 177.8 ± 133.85 ng/mL; Cmax ([3]; male, Sprague-Dawley, rat, plasma, po, 18.9 g/kg, male Sprague-Dawley rats, plasma, n = 6, mean ± SD, read-out: Cmax): 178 ± 134 ng/mL; AUC(0-inf) [3, 14]: 206 ± 153 ng·h/mL; Tmax [3, 14]: 0.1 ± 0.03 h; half-life [3, 14]: 0.19 ± 0.08 h; MRT [3, 14]: 11.8 ± 6.6 h
